Here are results for nine molecules from ChEMBL document CHEMBL3046526, “-Glucosidase inhibitory and antioxidant properties and antidiabetic activity of Hypericum ascyron L” (Med Chem Res, 2011).

The subject of assay [1] is Radical scavenging activity. Kind of assay: Antioxidant activity assessed as inhibition of DPPH radical production at 54.05 ug/ml after 30 min by microplate assay. Type of assay: functional.
Assay [2] concerns the target Lysosomal alpha-glucosidase (Rattus norvegicus) (UniProt Q6P7A9). Description: Inhibition ofRattus norvegicus alpha-glucosidase isolated from intestine using PNPG as substrate at 0.03 uM incubated for 15 min prior to substrate addition measured after 15 min by spectrophotometric analysis.
For assay [3], the species on record is Homo sapiens. Description: Inhibition of alpha-glucosidase (unknown origin) using PNPG as substrate at 0.03 uM incubated for 15 min prior to substrate addition measured after 15 min by spectrophotometric analysis.
The target of assay [4] is Lysosomal alpha-glucosidase (Rattus norvegicus) (UniProt Q6P7A9). Kind of assay: Inhibition ofRattus norvegicus alpha-glucosidase isolated from intestine using PNPG as substrate at 0.02 uM incubated for 15 min prior to substrate addition measured after 15 min by spectrophotometric analysis.
Assay [5] in a line: Inhibition of alpha-glucosidase (unknown origin) using PNPG as substrate at 0.02 uM incubated for 15 min prior to substrate addition measured after 15 min by spectrophotometric analysis. To be noted: Homo sapiens.
Assay [6] can be described thus: Inhibition of alpha-glucosidase (unknown origin) using PNPG as substrate incubated for 15 min prior to substrate addition measured after 15 min by spectrophotometric analysis. Further details: species or system Homo sapiens.
The species named for assay [7] is Homo sapiens. Kind of assay: Inhibition of alpha-glucosidase (unknown origin) using PNPG as substrate at 0.83 uM incubated for 15 min prior to substrate addition measured after 15 min by spectrophotometric analysis.
Assay [8] has as its target Lysosomal alpha-glucosidase (Rattus norvegicus) (UniProt Q6P7A9). To be noted: 0.83 uM.
Description: Inhibition ofRattus norvegicus alpha-glucosidase isolated from intestine using PNPG as substrate at 0.83 uM incubated for 15 min prior to substrate addition measured after 15 min by spectrophotometric analysis
For assay [9], the system named is Radical scavenging activity. Kind of assay: Antioxidant activity assessed as inhibition of DPPH radical production after 30 min by microplate assay. Type of assay: functional.
In assay [10] the test system is Radical scavenging activity. Kind of assay: Antioxidant activity assessed as inhibition of DPPH radical production at 108.11 ug/ml after 30 min by microplate assay. Type of assay: functional.
The test system of assay [11] is Radical scavenging activity. Description: Antioxidant activity assessed as inhibition of DPPH radical production at 10.81 ug/ml after 30 min by microplate assay. Type of assay: functional.

In brackets after ≈: the same amount, converted by molar mass.

Chain of Lysosomal alpha-glucosidase (Rattus norvegicus) (Q6P7A9 whole entry): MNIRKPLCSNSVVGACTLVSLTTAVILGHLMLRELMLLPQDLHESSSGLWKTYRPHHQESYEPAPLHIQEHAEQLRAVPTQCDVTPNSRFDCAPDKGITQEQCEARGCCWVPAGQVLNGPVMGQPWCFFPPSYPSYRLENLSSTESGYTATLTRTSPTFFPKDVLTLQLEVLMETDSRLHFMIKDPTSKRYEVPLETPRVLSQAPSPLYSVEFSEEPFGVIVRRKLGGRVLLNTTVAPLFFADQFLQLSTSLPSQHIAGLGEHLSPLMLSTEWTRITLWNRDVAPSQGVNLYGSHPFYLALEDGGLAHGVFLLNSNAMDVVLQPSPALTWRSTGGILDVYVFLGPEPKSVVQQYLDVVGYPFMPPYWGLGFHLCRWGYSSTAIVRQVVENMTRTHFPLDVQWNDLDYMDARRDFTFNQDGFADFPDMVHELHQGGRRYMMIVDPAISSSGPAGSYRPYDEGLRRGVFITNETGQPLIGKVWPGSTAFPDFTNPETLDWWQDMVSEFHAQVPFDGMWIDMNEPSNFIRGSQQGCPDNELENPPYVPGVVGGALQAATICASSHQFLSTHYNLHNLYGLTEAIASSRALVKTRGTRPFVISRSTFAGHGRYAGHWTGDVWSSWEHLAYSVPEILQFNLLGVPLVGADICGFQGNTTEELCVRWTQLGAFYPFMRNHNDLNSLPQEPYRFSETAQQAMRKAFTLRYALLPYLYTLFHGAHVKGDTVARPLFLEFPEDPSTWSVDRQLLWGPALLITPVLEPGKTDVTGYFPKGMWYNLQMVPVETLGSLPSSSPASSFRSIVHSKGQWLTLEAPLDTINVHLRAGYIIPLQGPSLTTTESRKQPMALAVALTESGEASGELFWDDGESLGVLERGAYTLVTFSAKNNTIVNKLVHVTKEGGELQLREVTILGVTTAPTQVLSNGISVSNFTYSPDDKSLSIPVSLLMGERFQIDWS

As to `O=c1c(O)c(-c2ccc(O)c(O)c2)oc2c(O)ccc(O)c12`, the inhibition in [1] is 2.63%; in assay [2] it was < 50%; in the assay filed under Homo sapiens [3], 14.3%.
For `O=c1c(O[C@@H]2O[C@H](CO)[C@@H](O)[C@H](O)[C@H]2O)c(-c2ccc(O)cc2)oc2cc(O)cc(O)c12`, the inhibition in [1] was 1.96%; in [4], < 50%; in assay [5] it was 18%.
The molecule `C[C@H]1O[C@H](O[C@H]2[C@H](O)[C@@H](O)[C@@H](O[C@H]3[C@H](O)[C@@H](O)C(O)O[C@@H]3CO)O[C@@H]2CO)[C@H](O)[C@@H](O)[C@@H]1N[C@H]1C=C(CO)[C@@H](O)[C@H](O)[C@H]1O` (some centres undefined) [ACARBOSE] gave an IC50 in [6] of 895 µM. For the same molecule, the inhibition is 68.4% in the assay filed under Homo sapiens [7] and 55.2% in assay [8].
As for `Cc1cc(C(C)(C)C)c(O)c(C(C)(C)C)c1` [BUTYLATED HYDROXYTOLUENE], in assay [9], the IC50 was 40.8 µg/mL (≈ 185 µM). Moreover, the inhibition in [10] was found to be 80.5%.
Regarding `O=c1c(O[C@@H]2O[C@H](CO)[C@H](O)[C@H](O)[C@H]2O)c(-c2ccc(O)c(O)c2)oc2cc(O)cc(O)c12` [HYPEROSIDE], the IC50 in [9] was found to be 24.02 µg/mL (≈ 51.7 µM). The values for the inhibition in assay [1], in assay [4] and in assay [5] were 86.5%, < 50% and 14.2%, respectively.
On the same counts, the results for `O=c1c(O[C@@H]2O[C@H](CO)[C@@H](O)[C@H](O)[C@H]2O)c(-c2ccc(O)c(O)c2)oc2cc(O)cc(O)c12` [ISOQUERCETIN] are 24.02 µg/mL (≈ 51.7 µM), 86.1%, < 50% and 14.4%.
Regarding `O=c1c(O)c(-c2ccc(O)cc2)oc2cc(O)cc(O)c12` [KAEMPFEROL], the IC50 amounted to 14.78 µg/mL (≈ 51.6 µM) in assay [9] and 61.8 µM in [6]. Also, the figures for the inhibition (in [1]; in assay [2]; in the assay listed under Homo sapiens [3]) were 90.1%, 99.3% and 51.5%, respectively.
Regarding `CCCOC(=O)c1cc(O)c(O)c(O)c1` [PROPYL GALLATE], the IC50 in assay [9] was found to be 3.96 µg/mL (≈ 18.7 µM). Also, the inhibition in [11] worked out at 89%.
For the molecule `C[C@H]1[C@H](C)CC[C@]2(C(=O)O)CC[C@]3(C)C(=CC[C@@H]4[C@@]5(C)CC[C@H](O)C(C)(C)[C@@H]5CC[C@]43C)[C@H]12` [URSOLIC ACID], the inhibition was < 50% in [4] and 99.7% in assay [5]. This molecule had a half-maximal inhibitory concentration (IC50) in assay [6] of 1.78 µM.
